Test results taken from ChEMBL document CHEMBL5370672, “Discovery of Orally Bioavailable Phthalazinone Analogues as an ENPP1 Inhibitor for STING-Mediated Cancer Immunotherapy” (J Med Chem, 2023).

Tests used:
[1] = biological target: T1, Ectonucleotide pyrophosphatase/phosphodiesterase family member 1 (Homo sapiens, UniProt P22413); assay: Inhibition of recombinant human ENPP1 using cGAMP as substrate assessed as inhibition of cGAMP hydrolysis preincubated for 5 to 10 mins followed by substrate addition and measured after 90 mins by AMP-Glo reagent based luminescence plate reader analysis
T1 sequence (P22413 whole entry): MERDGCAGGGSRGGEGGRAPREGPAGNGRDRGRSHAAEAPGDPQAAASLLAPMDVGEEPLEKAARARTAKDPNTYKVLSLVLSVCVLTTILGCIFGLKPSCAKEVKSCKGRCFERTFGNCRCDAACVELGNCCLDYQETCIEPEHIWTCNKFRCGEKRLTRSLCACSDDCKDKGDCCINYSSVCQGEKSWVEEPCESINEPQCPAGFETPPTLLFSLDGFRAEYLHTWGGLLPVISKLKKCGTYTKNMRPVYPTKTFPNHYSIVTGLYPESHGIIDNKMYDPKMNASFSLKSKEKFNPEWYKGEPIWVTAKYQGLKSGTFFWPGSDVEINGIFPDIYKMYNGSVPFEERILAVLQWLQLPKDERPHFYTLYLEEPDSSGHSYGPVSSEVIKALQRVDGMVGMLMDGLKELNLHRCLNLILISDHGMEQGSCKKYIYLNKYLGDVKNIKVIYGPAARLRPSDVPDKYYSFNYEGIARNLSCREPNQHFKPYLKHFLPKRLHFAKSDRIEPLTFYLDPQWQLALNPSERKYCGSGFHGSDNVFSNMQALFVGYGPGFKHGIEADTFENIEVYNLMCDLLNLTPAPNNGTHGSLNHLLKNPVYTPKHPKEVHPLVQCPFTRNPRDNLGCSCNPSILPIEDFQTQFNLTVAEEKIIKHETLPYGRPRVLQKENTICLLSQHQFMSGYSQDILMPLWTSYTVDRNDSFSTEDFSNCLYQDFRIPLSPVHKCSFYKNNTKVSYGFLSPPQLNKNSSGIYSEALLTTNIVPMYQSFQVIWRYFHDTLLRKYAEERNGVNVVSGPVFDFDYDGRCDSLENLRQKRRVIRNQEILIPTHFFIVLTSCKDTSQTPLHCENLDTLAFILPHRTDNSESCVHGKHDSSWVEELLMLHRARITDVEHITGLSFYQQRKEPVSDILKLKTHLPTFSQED

[2] = Half-life in BALB/c mouse at 20 mg/kg, po measured after 24 hrs by LC-MS/MS analysis; assay type: ADME, organism-based; settings: in vivo
[3] = Tmax in BALB/c mouse at 20 mg/kg, po measured after 24 hrs by LC-MS/MS analysis; assay type: ADME, organism-based; settings: in vivo
[4] = AUC (0 to t) in BALB/c mouse at 20 mg/kg, po measured after 24 hrs by LC-MS/MS analysis; assay type: ADME, organism-based; set-up: time 24 hrs, dose 20 mg/kg, route po; settings: in vivo
[5] = Oral bioavailability in BALB/c mouse at 20 mg/kg measured after 24 hrs by LC-MS/MS analysis; assay type: ADME, organism-based; settings: in vivo
[6] = Half-life in BALB/c mouse at 5 mg/kg, iv measured after 24 hrs by LC-MS/MS analysis; assay type: ADME, organism-based; settings: in vivo
[7] = Protein binding in mouse plasma assessed as unbound fraction by equilibrium dialysis based LC-MS/MS analysis; assay type: ADME, cell-free
[8] = Protein binding in human plasma assessed as unbound fraction by equilibrium dialysis based LC-MS/MS analysis; assay type: ADME, cell-free
[9] = Metabolic stability in mouse liver microsome assessed as half-life by LC/MS analysis; assay type: ADME; settings: liver microsomes
[10] = Metabolic stability in mouse liver microsome assessed as parent compound remaining measured after 30 mins by LC/MS analysis; assay type: ADME; settings: liver microsomes, read-out: Stability
[11] = biological target: Cytochrome P450 2C19 (Homo sapiens, UniProt P33261); assay: Inhibition of CYP2C19 in human liver microsomes; assay type: ADME, Microsome
[12] = biological target: Stimulator of interferon genes protein (Homo sapiens) (UniProt Q86WV6); assay: Activation of STING-mediated immune response in human HCT-116 cells transfected with ISRE reporter assessed as increase in cGAMP-induced ISRE activation preincubated with compound for 1 hrs followed by cGAMP addition and measured after 48 hrs by luciferase reporter gene assay; assay type: cell-based; settings: filed as activator, dose <= 200.0 µM, time 49.0 hrs
[13] = Toxicity in BALB/c mouse implanted with mouse CT26 cells assessed as effect on body weight at 200 mg/kg, po administered for 2 weeks and measured on day 15 in the presence of anti-PD-L1 antibody; assay type: organism-based; settings: in vivo, 360 h, time 15 day
[14] = tested on: CT26; assay: Immunological memory derived antitumor activity against mouse CT26 cells implanted in BALB/c mouse assessed as tumor growth regression at 200 mg/kg, po preadministered with compound for 2 weeks followed by reinoculation of CT26 cells and measured on day 19 relative to control; assay type: functional; settings: time 19 day

Sequence of Stimulator of interferon genes protein (Homo sapiens) (Q86WV6 whole entry): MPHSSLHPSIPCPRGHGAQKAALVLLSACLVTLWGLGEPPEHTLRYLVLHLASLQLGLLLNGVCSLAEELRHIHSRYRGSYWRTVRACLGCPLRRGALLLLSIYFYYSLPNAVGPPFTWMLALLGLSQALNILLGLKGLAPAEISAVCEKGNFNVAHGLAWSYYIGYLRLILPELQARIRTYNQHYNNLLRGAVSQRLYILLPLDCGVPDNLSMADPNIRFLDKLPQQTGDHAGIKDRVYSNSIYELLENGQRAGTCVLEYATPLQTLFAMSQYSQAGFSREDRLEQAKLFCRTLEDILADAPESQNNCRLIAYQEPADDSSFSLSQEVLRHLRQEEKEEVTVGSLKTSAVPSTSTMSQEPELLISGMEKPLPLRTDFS
Sequence of Cytochrome P450 2C19 (P33261 whole entry): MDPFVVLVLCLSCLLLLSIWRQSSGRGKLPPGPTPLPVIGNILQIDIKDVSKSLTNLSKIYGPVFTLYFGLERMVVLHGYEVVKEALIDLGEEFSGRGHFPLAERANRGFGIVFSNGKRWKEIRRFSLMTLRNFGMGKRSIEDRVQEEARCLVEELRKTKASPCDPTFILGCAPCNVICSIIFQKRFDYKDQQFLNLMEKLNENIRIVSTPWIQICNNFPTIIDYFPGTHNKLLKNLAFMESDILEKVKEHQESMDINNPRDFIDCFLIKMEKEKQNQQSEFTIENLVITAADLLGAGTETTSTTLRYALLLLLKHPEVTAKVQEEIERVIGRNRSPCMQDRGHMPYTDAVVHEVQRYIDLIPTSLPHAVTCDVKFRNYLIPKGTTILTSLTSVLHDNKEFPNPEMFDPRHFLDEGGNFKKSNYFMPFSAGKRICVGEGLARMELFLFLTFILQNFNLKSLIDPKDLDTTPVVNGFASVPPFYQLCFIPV

IC50 [1]: 68 nM
half-life [2]: 2.8 h
Tmax [3]: 1.67 h
AUC(0-t) at 24 h [4]: 79400 ng·h/mL
bioavailability [5]: 65.4%
half-life [6]: 3.61 h
fraction unbound [7]: 0.09
fraction unbound [8]: 0.18
half-life [9]: 0.987 h
remaining at 0.5 h [10]: 65%
IC50 [11]: > 10000 nM
Activity [12]: Dose-Dependent Effect
SMILES: Cn1nc(Cc2ccc(NS(N)(=O)=O)cc2)c2ccccc2c1=O
Activity [13]: Non-Toxic
Activity [14]: 100%
